Experimental data from patent US6716833B2, “Acetylenic α-amino acid-based sulfonamide hydroxamic acid tace inhibitors” (priority 1999, dated 2004).

Experiments:
[1] = target: TNF-α converting enzyme (TACE) (Homo sapiens, UniProt P78536); assay: TACE inhibition (fluorescent peptidyl substrate); type: biochemical; conditions: read-out: TACE IC50
MMP-9 = MMP-9 (Homo sapiens, UniProt P14780); assay: MMP-9 inhibition (thiopeptide or fluorescent peptide substrate); type: biochemical; conditions: read-out: MMP-9 IC50
Chain of MMP-9 (P14780 94-707): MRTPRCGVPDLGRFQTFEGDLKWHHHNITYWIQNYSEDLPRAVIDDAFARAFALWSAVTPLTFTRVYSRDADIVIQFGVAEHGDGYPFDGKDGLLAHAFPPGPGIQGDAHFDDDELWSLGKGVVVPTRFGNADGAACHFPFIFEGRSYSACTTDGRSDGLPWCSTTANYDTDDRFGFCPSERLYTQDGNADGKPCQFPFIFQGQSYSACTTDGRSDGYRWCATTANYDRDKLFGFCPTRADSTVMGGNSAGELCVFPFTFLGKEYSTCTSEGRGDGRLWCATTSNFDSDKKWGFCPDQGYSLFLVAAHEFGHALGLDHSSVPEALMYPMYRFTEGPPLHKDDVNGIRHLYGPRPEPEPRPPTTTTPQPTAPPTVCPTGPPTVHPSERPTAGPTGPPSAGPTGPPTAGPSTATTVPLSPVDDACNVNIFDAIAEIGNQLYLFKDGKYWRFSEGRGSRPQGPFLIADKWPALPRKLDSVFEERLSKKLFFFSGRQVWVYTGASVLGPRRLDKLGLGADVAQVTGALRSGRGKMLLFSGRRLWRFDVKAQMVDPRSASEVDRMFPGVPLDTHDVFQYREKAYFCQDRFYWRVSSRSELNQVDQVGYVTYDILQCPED

THP-1 cells = assay: THP-1 soluble protein assay, soluble TNF-α (ELISA); type: cell-based, human; conditions: Homo sapiens, THP-1, 3 μM; THP-1 cells; read-out: THP % Inhibition @ 3 μM
MMP-13 = MMP-13 (Homo sapiens, UniProt P45452); assay: MMP-13 inhibition (thiopeptide or fluorescent peptide substrate); type: biochemical; conditions: read-out: MMP-13 IC50
MMP-1 = target: T1, MMP-1 (Homo sapiens, UniProt P03956); assay: MMP-1 inhibition (thiopeptide or fluorescent peptide substrate); type: biochemical; conditions: read-out: MMP-1 IC50
T1 sequence (P03956 100-469): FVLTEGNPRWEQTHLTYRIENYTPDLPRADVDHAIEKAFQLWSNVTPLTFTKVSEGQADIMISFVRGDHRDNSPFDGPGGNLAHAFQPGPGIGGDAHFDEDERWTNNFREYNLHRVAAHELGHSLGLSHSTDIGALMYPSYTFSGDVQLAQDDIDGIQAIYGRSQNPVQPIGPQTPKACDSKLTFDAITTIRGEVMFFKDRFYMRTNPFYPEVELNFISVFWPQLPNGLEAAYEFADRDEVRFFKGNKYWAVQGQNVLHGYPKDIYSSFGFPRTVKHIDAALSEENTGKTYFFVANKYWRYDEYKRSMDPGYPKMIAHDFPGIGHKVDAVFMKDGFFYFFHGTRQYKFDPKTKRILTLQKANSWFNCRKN

Chain of TNF-α converting enzyme (TACE) (P78536 215-824, species assumed): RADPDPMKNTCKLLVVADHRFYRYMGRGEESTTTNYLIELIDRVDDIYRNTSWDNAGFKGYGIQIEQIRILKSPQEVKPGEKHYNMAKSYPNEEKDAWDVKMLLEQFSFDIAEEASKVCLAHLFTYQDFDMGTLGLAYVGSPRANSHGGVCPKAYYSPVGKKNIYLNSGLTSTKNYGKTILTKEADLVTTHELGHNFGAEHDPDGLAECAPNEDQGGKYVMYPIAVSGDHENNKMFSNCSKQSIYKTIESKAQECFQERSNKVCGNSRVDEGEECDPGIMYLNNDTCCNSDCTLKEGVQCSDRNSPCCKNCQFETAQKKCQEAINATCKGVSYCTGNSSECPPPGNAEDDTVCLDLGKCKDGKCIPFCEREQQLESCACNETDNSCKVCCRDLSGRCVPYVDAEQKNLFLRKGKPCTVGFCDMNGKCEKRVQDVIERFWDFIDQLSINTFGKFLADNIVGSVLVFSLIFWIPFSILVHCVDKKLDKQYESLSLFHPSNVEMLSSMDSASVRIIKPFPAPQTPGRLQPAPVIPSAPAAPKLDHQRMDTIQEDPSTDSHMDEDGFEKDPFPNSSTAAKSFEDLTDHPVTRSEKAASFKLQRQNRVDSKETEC

| IC50 [1] | IC50 (MMP-9) | IC50 (MMP-13) | melting point | IC50 (MMP-1) | SMILES | inhibition at 3 µM (THP-1 cells) |
| --- | --- | --- | --- | --- | --- | --- |
| 7.4 nM | 192 nM | 28 nM | 180 to 182 °C | 1040 nM | CC#CCOc1ccc(S(=O)(=O)N[C@@H](C(=O)NO)C2CCC(O)CC2)cc1 (stereo partly drawn) [Example 129, (2R)-{[4-(2-Butynyloxy)phenyl]sulfonyl}amino-N-hydroxy-2-(4-hydroxycyclohexyl)ethanamide] | 92% |
| 27 nM | 2170 nM | 619 nM | 82 to 84 °C | 5170 nM | CC#CCOc1ccc(S(=O)(=O)NC2(C(=O)NO)CCCCC2)cc1 [Example 138, 1-({[4-(2-Butynyloxy)phenyl]sulfonyl}amino)-N-hydroxycyclohexanecarboxamide] | 19% |
| 37 nM | 3700 nM | 1270 nM | 66 to 68 °C | > 10000 nM | CC#CCOc1ccc(S(=O)(=O)NC2(C(=O)NO)CCCC2)cc1 [Example 139, 1-({[4-(2-Butynyloxy)phenyl]sulfonyl}amino)-N-hydroxycyclopentanecarboxamide] | 26% |
| 25 nM | 164 nM | 30 nM | 128 to 132 °C | 1020 nM | CC#CCOc1ccc(S(=O)(=O)N[C@@H](C(=O)NO)C(C)(C)SC)cc1 [Example 158] | 78% |
| 12 nM | 424 nM | 42 nM | 46 to 50 °C | 852 nM | CC#CCOc1ccc(S(=O)(=O)NC(C(=O)NO)C(C)(C)SCC)cc1 (stereo not drawn) [Example 159, 2-[(4-but-2-ynyloxy-Benenesulfonyl)-amino]-N-hydroxy-3-methyl-3-ethylsulfanyl-butyramide] | 76% |
| 15 nM | 1010 nM | 65 nM | 152 to 155 °C | 1400 nM | CC#CCOc1ccc(S(=O)(=O)NC(C(=O)NO)C(C)(C)SCCC)cc1 (stereo not drawn) [Example 160, 2-[(4-but-2-ynyloxy-Benenesulfonyl)-amino]-N-hydroxy-3-methyl-3-propylsulfanyl-butyramide] | 67% |
| 19 nM | 138 nM | 8.3 nM | 92 to 95 °C | 310 nM | CC#CCOc1ccc(S(=O)(=O)NC(C(=O)NO)C(C)(C)SCc2ccccc2)cc1 (stereo not drawn) [Example 162] | 49% |
| 18 nM | 306 nM | 47 nM | 112 to 115 °C | 1720 nM | CC#CCOc1ccc(S(=O)(=O)NC(C(=O)NO)C(C)(C)SCc2nccn2C)cc1 (stereo not drawn) [Example 163] | 77% |
| 64 nM | 204 nM | 20 nM | 72 °C | 1570 nM | CC#CCOc1ccc(S(=O)(=O)NC(C(=O)NO)C(C)(C)SCCN2CCOCC2)cc1 (stereo not drawn) [Example 164] | 70% |
| 69 nM | 587 nM | 177 nM | 47 to 52 °C | 2430 nM | CC#CCOc1ccc(S(=O)(=O)NC(C(=O)NO)C(C)(C)SCC(=O)OC(C)(C)C)cc1 (stereo not drawn) [Example 165] | 84% |
